From PMC3951249 (Bioorganic & medicinal chemistry letters, 2014)
Values belong to the compound of their own block, whether it stands above or below them.

Columns and labels:
GlyT1 [1] = biological target: T1, GlyT1 (Homo sapiens, UniProt P48067); details: ref 13-15 (1 and 2), ref 5-8 (NFPS); cited from earlier work
T1 sequence (P48067 1-706): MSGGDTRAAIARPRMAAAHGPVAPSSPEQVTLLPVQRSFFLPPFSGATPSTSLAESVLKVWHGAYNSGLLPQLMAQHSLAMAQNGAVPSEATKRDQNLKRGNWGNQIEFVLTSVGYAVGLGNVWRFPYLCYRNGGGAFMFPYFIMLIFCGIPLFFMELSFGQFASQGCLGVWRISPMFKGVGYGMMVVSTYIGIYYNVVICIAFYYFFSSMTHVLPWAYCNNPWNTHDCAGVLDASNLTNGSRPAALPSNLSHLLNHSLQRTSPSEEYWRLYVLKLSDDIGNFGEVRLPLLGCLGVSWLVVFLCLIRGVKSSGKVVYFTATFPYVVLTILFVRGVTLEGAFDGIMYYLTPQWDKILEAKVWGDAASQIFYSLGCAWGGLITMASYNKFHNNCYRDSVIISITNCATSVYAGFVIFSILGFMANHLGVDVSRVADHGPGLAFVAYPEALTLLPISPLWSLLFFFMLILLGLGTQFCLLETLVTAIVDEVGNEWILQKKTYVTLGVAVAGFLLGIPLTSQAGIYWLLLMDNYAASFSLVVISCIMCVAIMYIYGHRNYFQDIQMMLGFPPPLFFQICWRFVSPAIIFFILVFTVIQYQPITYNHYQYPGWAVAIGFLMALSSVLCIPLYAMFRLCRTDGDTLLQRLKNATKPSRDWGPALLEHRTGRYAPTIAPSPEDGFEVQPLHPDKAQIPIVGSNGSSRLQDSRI

[2] = data reported for Merck's 2; cited from earlier work
[3] = data reported for Merck's 2; cited from earlier work; remark: listed apart in the source
GlyT1 [4] = biological target: T1, GlyT1; details: 30 mg/kg oral; cited from earlier work
[5] = test system: prepulse inhibition (PPI) of the rodent acoustic startle response; experiment: prepulse inhibition; type: in vivo; details: rat, 30 mg/kg p.o.
GlyT1 [6] = biological target: T1, GlyT1; experiment: GlyT1 inhibition, [14C]-glycine uptake assay; type: cell-based; details: for loss in GlyT1 potency relative to piperidine analog: 4a vs 2, 4b vs 1
CYP (isoforms not named) = experiment: CYP profile; type: in vitro ADME
[7] = in vitro intrinsic clearance, rat; type: in vitro ADME; details: from in vitro intrinsic clearance
GlyT2 = biological target: T2, GlyT2 (Homo sapiens, UniProt Q9Y345); experiment: GlyT2 inhibition; type: cell-based
T2 sequence (Q9Y345 1-797): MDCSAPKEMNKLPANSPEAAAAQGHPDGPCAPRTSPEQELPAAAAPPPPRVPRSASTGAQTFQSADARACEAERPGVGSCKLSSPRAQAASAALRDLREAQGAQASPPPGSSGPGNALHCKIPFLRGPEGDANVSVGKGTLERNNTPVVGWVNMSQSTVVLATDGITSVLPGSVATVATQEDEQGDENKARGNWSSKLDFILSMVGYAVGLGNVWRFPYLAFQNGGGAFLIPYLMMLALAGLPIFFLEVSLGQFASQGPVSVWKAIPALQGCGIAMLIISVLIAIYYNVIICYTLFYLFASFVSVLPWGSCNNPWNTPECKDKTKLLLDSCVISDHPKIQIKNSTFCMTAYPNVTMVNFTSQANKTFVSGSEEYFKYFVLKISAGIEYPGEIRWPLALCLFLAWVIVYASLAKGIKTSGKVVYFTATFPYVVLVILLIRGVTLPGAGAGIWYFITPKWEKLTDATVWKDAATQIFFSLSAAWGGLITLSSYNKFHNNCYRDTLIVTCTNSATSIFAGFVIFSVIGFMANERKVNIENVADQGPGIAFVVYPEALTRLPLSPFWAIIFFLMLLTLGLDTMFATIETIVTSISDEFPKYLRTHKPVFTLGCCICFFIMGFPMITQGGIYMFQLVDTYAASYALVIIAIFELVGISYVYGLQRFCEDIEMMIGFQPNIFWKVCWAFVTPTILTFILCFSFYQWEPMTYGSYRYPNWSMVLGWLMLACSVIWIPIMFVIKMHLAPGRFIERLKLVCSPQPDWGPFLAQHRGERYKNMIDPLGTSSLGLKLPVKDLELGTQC

[8] = brain tissue distribution study; type: in vivo; details: rat
CYP3A4 = CYP3A4 (Homo sapiens, UniProt P08684); experiment: CYP inhibition; type: in vitro ADME
Sequence of CYP3A4 (P08684 whole entry): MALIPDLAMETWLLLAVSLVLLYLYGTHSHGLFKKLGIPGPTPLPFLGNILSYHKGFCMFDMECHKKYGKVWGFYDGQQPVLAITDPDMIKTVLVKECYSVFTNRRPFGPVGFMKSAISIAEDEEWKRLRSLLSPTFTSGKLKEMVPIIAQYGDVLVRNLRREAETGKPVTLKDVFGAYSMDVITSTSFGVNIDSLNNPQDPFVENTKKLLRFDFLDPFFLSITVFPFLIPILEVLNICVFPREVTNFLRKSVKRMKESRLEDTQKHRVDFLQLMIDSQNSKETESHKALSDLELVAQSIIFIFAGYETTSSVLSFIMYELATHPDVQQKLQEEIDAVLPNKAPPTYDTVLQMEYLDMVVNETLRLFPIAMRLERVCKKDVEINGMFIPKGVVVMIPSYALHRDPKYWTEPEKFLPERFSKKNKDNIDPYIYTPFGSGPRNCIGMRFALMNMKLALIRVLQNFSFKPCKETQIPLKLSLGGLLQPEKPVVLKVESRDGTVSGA

stability in rat plasma = type: in vitro ADME; details: 4 hours at 37 °C
[9] = test system: 68 GPCRs, ion channels and transporters; experiment: Eurofin Lead Profiling panel of radioligand binding assays; details: @10 μM, 68 targets
[10] = fraction unbound in human plasma; type: in vitro ADME; details: fu (hum)
[11] = in vitro intrinsic clearance, human; type: in vitro ADME; details: from in vitro intrinsic clearance

SMILES: CCCS(=O)(=O)N1CCC(c2ccccc2)([C@H](C)NC(=O)c2ccc(Cl)cc2Cl)CC1 [Compound 1]
known mechanism of action with respect to glycine (GlyT1 [1]): competitive

SMILES: CCS(=O)(=O)N1CCC(CNC(=O)c2ccc(Cl)cc2Cl)(CC2CC2)CC1 [Compound 2]
clearance in rat [2]: moderate to high clearance
clearance in dog [3]: low clearance
occupancy (GlyT1 [4]): > 90%
known mechanism of action with respect to glycine (GlyT1 [1]): competitive
effect on basal startle amplitude during no-stimulus trials [5]: no effect

SMILES: CCS(=O)(=O)N1C[C@@H]2[C@H](C1)[C@@]2(CNC(=O)c1ccc(Cl)cc1Cl)CC1CC1 [Compound 4a]
loss in GlyT1 potency relative to piperidine analog (GlyT1 [6]): 50 fold

SMILES: CCCS(=O)(=O)N1C[C@@H]2[C@H](C1)[C@@]2(CNC(=O)c1ccc(Cl)cc1Cl)CC1CC1 [Compound 4b]
loss in GlyT1 potency relative to piperidine analog (GlyT1 [6]): ~ 150 fold

SMILES: Cn1cnc(S(=O)(=O)N2C[C@@H]3[C@H](C2)[C@@]3(CNC(=O)c2ccc(Cl)cc2Cl)c2ccccn2)c1 [Compound 10]
IC50 (CYP (isoforms not named)): > 30 µM

SMILES: Cn1cnc(S(=O)(=O)N2C[C@@H]3[C@H](C2)[C@@]3(CNC(=O)c2ccccc2C(F)(F)F)c2ccccn2)c1 [Compound 11]
IC50 (CYP (isoforms not named)): > 30 µM

Further lines, with some results ahead:

mechanism of inhibition with respect to glycine (Eadie-Hoffstee plot) (GlyT1 [6]; [14C]-glycine transport, 40 nM 12c): competitive
SMILES: Cn1cnc(S(=O)(=O)N2C[C@@H]3[C@H](C2)[C@@]3(CNC(=O)c2c(Cl)cccc2Cl)CC2CC2)c1 [Compound 12c]

predicted hepatic clearance ClHEP [7]: 43.0 mL/min/kg
IC50 (GlyT2): > 30 µM
brain AUC0-6hr ([8]; 10 mg/kg p.o. in 0.5% methocellulose): 0.956 µM·h
brain AUC0-6hr ([8]; 10 mg/kg s.c. in 10% tween 80): 0.431 µM·h
IC50 (CYP3A4): 14.9 µM
stability in rat plasma (stability in rat plasma): stable
inhibition against any target in the panel [9]: ≤ 50%
fraction unbound [10]: 0.068
predicted hepatic clearance ClHEP [11]: 17.7 mL/min/kg
SMILES: Cn1cnc(S(=O)(=O)N2C[C@@H]3[C@H](C2)[C@@]3(CNC(=O)c2ccccc2C(F)(F)F)CC2CC2)c1 [Compound 12d]
effect on basal startle amplitude during no-stimulus trials [5]: no effect
